Reference: patent US8546338B2, “Self-assembling hydrogels based on dicephalic peptide amphiphiles” (Johnson & Johnson Consumer Companies, Inc., priority 2010, dated 2013)

Key:
[1] = Oscillating rheology, time sweep (kinetics of formation); type: physicochemical; settings: 2 wt % gels in DMEM
Experimental: Oscillating rheology by the parallel plates method (radius=25 mm) was performed on 400 μl gels to assess the mechanical strengths of gels. Time sweeps were performed to evaluate kinetics of formation at a constant strain rate of 1% and frequency of 1 rad/s. Strain sweeps were performed ranging from 1-100% strain in increments of 2% at a constant frequency of 1 rad/s. Cross-over of G′ and G″ was used to determine the gel point and point of breakdown. Time sweeps were initiated immediately after mixing the solutions that lead to DPA hydrogel formation. In the strain sweeps, the gels were allowed to form on the plate for 30 minutes before the measurement is initiated.
The gelation process was initiated on the plate at 25° C. by the addition of 10 μl of 100 mg/ml calcium chloride solution to a solution of the DPA in DMEM.

[2] = tested on: human kidney derived cells (hKDCs); assay: Cell viability of encapsulated hKDCs in DPA gels (Live/Dead); type: cell-based; settings: 2% DPA gel, after 1, 2 and 3 weeks
Experimental: The viability and proliferation of cells in the gels was evaluated by encapsulating human kidney derived cells (hKDCs) in the gels. hKDC were isolated as described in US Patent Publication Number 2008/0112939. Cells were thawed from storage and cultured for four days in renal epithelial growth media (REGM) media. After four days, the cells were trypsinized and counted by the Guava ViaCount (Millipore, Billerica, Mass.) methodology. Cells were re-suspended in REGM media at a density of 1,000,000 cells/ml. Encapsulation of the cells in the gels was achieved by adding 100 μl cell suspension to 100 μl of a 4 wt % DPA solution in ultrapure in a 24 well plate, resulting in a final DPA concentration of 2%. The gels were incubated for 1 h at 37° C., 5% CO2 after which 1000 μl media was added on top of the gel. Cells were incubated at 37° C., 5% CO2. Every 3-4 days of culture, 500 μl media was replaced. The cells were cultured for 3 weeks and cells were assessed after 1, 2 and 3 weeks with Live/Dead.

[3] = tested on: human internal mammary artery derived cells (IMACs); assay: Cell viability of encapsulated IMACs in DPA gels (Live/Dead); type: cell-based; settings: 2% DPA gel
Experimental: The viability and proliferation of cells in the gels was evaluated by encapsulating human internal mammary artery derived cells (IMACs) in the gels. IMACs were isolated as described in copending U.S. patent application Ser. No. 12/885,855. Cells were thawed from storage and cultured for four days in advanced DMEM/F12 media. After four days, the cells were trypsinized and counted by the Guava ViaCount (Millipore, Billerica, Mass.) methodology. Cells were re-suspended in advanced DMEM/F12 media at a density of 1,000,000 cells/ml. Encapsulation of the cells in the gels was achieved by adding 100 μl cell suspension to 100 μl of a 4 wt % DPA solution in ultrapure in a 24 well plate, resulting in a final DPA concentration of 2%. The gels were incubated for 1 h at 37° C., 5% CO2 after which 1000 μl media was added on top of the gel. Cells were incubated at 37° C., 5% CO2. Every 3-4 days of culture, 500 μl media was replaced. The cells were cultured for 3 weeks and cells were assessed after 1, 2 and 3 weeks with Live/Dead. […] The IMAC cells appear to have high motility in these gels as evidenced by the channels that they create in the gels.

CCCCCCCCCCCCCCCC(=O)NC(C(=O)NCC(=O)N[C@@H](Cc1ccccc1)C(=O)NCC(=O)N[C@@H](Cc1ccccc1)C(=O)NCC(=O)N[C@@H](Cc1ccccc1)C(=O)NCC(=O)N[C@@H](CCC(N)=O)C(=O)N[C@@H](CCC(N)=O)C(=O)N[C@@H](CO)C(=O)O)C(=O)NCC(=O)N[C@@H](Cc1ccccc1)C(=O)NCC(=O)N[C@@H](Cc1ccccc1)C(=O)NCC(=O)N[C@@H](Cc1ccccc1)C(=O)NCC(=O)N[C@@H](CCC(N)=O)C(=O)N[C@@H](CCC(N)=O)C(=O)N[C@@H](CO)C(=O)O [Gly-Phe-Gly-Phe-Gly-Phe-Gly-Gln-Gln-Ser]
Gel point after mixing [1]: 74 s | Viability of hKDC cells, Live/Dead [2]: very limited numbers of dead cells were detected | Viability of IMAC cells, Live/Dead ([3]; after 1, 2 and 3 weeks): very limited numbers of dead cells were detected | Motility of IMAC cells in the gel ([3]; three weeks, channels created in the gels): high motility
